# Assays:
# MOLM/16 [1] = test: area under dose-response curve (cell viability) (AUC (arbitrary, % viability x log concentration)); higher = less sensitive (more viable); settings: 4 days
# Method: (§1)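 14 AML cell lines were plated on extracellular-matrix-coated 384-well plates and exposed to each drug at 8 concentrations (4-5 logs within 1e-12 to 1e-4 M, tailored per drug) in duplicate. Viability was read by CellTiter-Glo after 4 days. The dose-response (averaged over duplicates) was fitted to a 4-parameter sigmoid, and the area under the curve was taken as the sensitivity measure.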
# PL-21 [2] = test: as above; settings: 4 days
# Method: as §1
# OCI-AML3 [3] = test: as above; settings: 4 days
# Method: as §1
# SKM1 [4] = test: as above; settings: 4 days
# Method: as §1
# KG1 = test: IC50 (cell viability) (log10 M); settings: 4 days
# Method: (§2)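 14 AML cell lines were treated with 8 drug concentrations in duplicate on ECM-coated 384-well plates, with CellTiter-Glo viability read after 4 days. IC50 is the concentration where the fitted 4-parameter curve crosses 50% viability. For inactive compounds the maximum tested concentration is used as a placeholder.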
# MOLM/13 = test: IC50 (cell viability) (log10 M); settings: 4 days
# Method: as §2
# EOL-1 = test: IC50 (cell viability) (log10 M); settings: 4 days
# Method: as §2
# KASUMI1 = test: IC50 (cell viability) (log10 M); settings: 4 days
# Method: as §2
# OCI-AML2 = test: IC50 (cell viability) (log10 M); settings: 4 days
# Method: as §2
# NB4 = test: IC50 (cell viability) (log10 M); settings: 4 days
# Method: as §2
# HL60 = test: IC50 (cell viability) (log10 M); settings: 4 days
# Method: as §2
# MOLM/16 [5] = test: IC50 (cell viability) (log10 M); settings: 4 days
# Method: as §2
# PL-21 [6] = test: IC50 (cell viability) (log10 M); settings: 4 days
# Method: as §2
# OCI-AML3 [7] = test: IC50 (cell viability) (log10 M); settings: 4 days
# Method: as §2
# U937 = test: IC50 (cell viability) (log10 M); settings: 4 days
# Method: as §2
# MV4.11 = test: IC50 (cell viability) (log10 M); settings: 4 days
# Method: as §2
# THP-1 = test: IC50 (cell viability) (log10 M); settings: 4 days
# Method: as §2
# SKM1 [8] = test: IC50 (cell viability) (log10 M); settings: 4 days
# Method: as §2
# AML.076 = primary AML patient cells; test: area under dose-response curve (cell viability), primary AML patient cells (AUC (arbitrary, % viability x log concentration; ComBat batch-corrected)); higher = less sensitive (more viable); settings: 4 days; sample type: primary AML patient cells
# In short: (§3)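 Drug response was scored as area under the fitted curve, with ComBat used to remove batch effects. The curves were four-parameter fits to CellTiter-Glo viability readings taken 4 days after drugs were added, in duplicate, at eight concentrations within 10^–12–10^–4 M. The cells were blast-enriched primary AML samples, thawed with DNase, precultured 48 h in IMDM with horse serum, fetal calf serum and low stem cell factor, and seeded at 5000 cells/well on extracellular-matrix-coated 384-well plates.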
# AML.017 = primary AML patient cells; test: as above; settings: 4 days; sample type: primary AML patient cells
# In short: as §3
SMILES,area under dose-response curve (MOLM/16 [1]),area under dose-response curve (PL-21 [2]),area under dose-response curve (OCI-AML3 [3]),area under dose-response curve (SKM1 [4]),IC50 (log10 M) (KG1),IC50 (log10 M) (MOLM/13),IC50 (log10 M) (EOL-1),IC50 (log10 M) (KASUMI1),IC50 (log10 M) (OCI-AML2),IC50 (log10 M) (NB4),IC50 (log10 M) (HL60),IC50 (log10 M) (MOLM/16 [5]),IC50 (log10 M) (PL-21 [6]),IC50 (log10 M) (OCI-AML3 [7]),IC50 (log10 M) (U937),IC50 (log10 M) (MV4.11),IC50 (log10 M) (THP-1),IC50 (log10 M) (SKM1 [8]),area under dose-response curve (AML.076),area under dose-response curve (AML.017)
CC1(C)CCC(c2ccc(Cl)cc2)=C(CN2CCN(c3ccc(C(=O)NS(=O)(=O)c4ccc(N[C@H](CCN5CCOCC5)CSc5ccccc5)c(S(=O)(=O)C(F)(F)F)c4)cc3)CC2)C1 [ABT-263],540,630,643,626,-6.31,-6.38,-6.54,-6.42,-6.42,> -5.96,-6.22,-6.12,> -5.96,> -5.96,> -5.96,-6.49,> -5.96,> -5.96,527,643
Cl[TeH]1(Cl)(Cl)OCCO1.N [AS101],561,543,571,605,> -5,-5.07,> -5,> -5,> -5,-5.28,> -5,> -5,> -5,> -5,> -5,-5.19,-5.02,> -5,≥ 794,659
O=C(NC1CCNCC1)c1n[nH]cc1NC(=O)c1c(Cl)cccc1Cl [AT-7519],514,431,460,415,-6.08,-6.96,-7.28,-6.54,-6.9,-6.93,-6.57,-6.37,-6.96,-6.93,-7.21,-6.96,-6.61,-6.99,448,434
CN1CCN(CCOc2cc(OC3CCOCC3)c3c(Nc4c(Cl)ccc5c4OCO5)ncnc3c2)CC1 [AZD0530],666,641,705,736,> -5,-5.23,-5.77,> -5,> -5,> -5,> -5,-5.32,> -5,> -5,> -5,-5.33,> -5,> -5,689,687
Cc1cc(C(=O)NOCCO)c(Nc2ccc(I)cc2F)n(C)c1=O [AZD8330],341,205,87.3,44.2,< -8.34,-7.02,< -8.34,-8.22,< -8.34,-8.3,-8.31,> -5,< -8.34,< -8.34,> -5,-8.16,> -5,< -8.34,≥ 609,472
Cn1cnc2c(F)c(Nc3ccc(Br)cc3Cl)c(C(=O)NOCCO)cc21 [AZD-6244],501,439,384,358,-5.45,> -5,-6.11,> -5,-7.65,-6.9,-6.75,> -5,-6.69,-7.46,> -5,-5.4,> -5,-7.45,681,484
COc1ccc(-c2ccc3c(N4CCOC[C@@H]4C)nc(N4CCOC[C@@H]4C)nc3n2)cc1CO [AZD-8055],299,390,405,413,-7.85,-7.57,-8.05,-6.78,-7.24,-6.86,-5.35,-7.98,-7.46,-7.34,-8.07,-7.75,-5.23,-7.16,491,395
CNC(=O)c1ccccc1Sc1ccc2c(/C=C/c3ccccn3)n[nH]c2c1 [Axitinib],577,582,641,679,-6.58,-5.77,-8.07,-6.09,-5.53,-5.46,-5.28,-5.77,-5.85,-5.51,-5.67,-5.94,-5.22,-5.34,686,603
Nc1ncn([C@@H]2O[C@H](CO)[C@@H](O)[C@H]2O)c(=O)n1 [Azacitidine],506,593,619,564,-5.17,-6.31,-6.46,-5.32,-5.78,-6.37,-5.15,-6.22,-5.42,-5.44,-5.38,-5.85,-5.1,-5.76,730,715
Cc1ccc(S(=O)(=O)/C=C/C#N)cc1 [BAY 11-7082],520,500,461,467,-6.21,-6,-6.3,-6.25,-5.94,-5.97,-6.19,-6.09,-6.03,-6.35,-6.11,-6.31,-5.91,-6.22,467,589
CC(C)(C)c1ccc(S(=O)(=O)/C=C/C#N)cc1 [BAY 11-7085],476,506,444,465,-6.46,-6.13,-6.66,-6.75,-6,-5.98,-6.66,-6.25,-6.03,-6.75,-6.33,-6.27,-6.04,-6.48,471,566
Cn1c(=O)n(-c2ccc(C(C)(C)C#N)cc2)c2c3cc(-c4cnc5ccccc5c4)ccc3ncc21 [BEZ-235],362,444,459,451,-6.98,-7.34,-7.84,-7.17,-7.06,-6.69,-6.65,-7.64,-7.32,-7.11,-7.84,-7.24,-6.87,-7.5,514,421
COc1ccc(-c2ccc3ncc4c(c3c2)n(-c2ccc(N3CCNCC3)c(C(F)(F)F)c2)c(=O)n4C)cn1 [BGT-226],316,367,412,369,-6.94,-7.59,-8.04,-7.28,-7.3,-6.92,-6.86,-8.05,-7.44,-7.17,-8.02,-7.65,-7,-7.48,≥ 464,460
CC[C@@H]1C(=O)N(C)c2cnc(Nc3ccc(C(=O)NC4CCN(C)CC4)cc3OC)nc2N1C1CCCC1 [BI-2536],90,7.31,6.18,110,< -8.34,< -8.34,< -8.34,< -8.34,< -8.34,< -8.34,< -8.34,< -8.34,< -8.34,< -8.34,< -8.34,< -8.34,< -8.34,< -8.34,476,592
COC(=O)c1ccc2c(c1)NC(=O)/C2=C(\Nc1ccc(N(C)C(=O)CN2CCN(C)CC2)cc1)c1ccccc1 [BIBF1120],653,626,685,677,-5.46,-6.53,-8.09,> -5,> -5,> -5,> -5,> -5,> -5,> -5,> -5,-6.52,> -5,> -5,688,694
CN(C)C/C=C/C(=O)Nc1cc2c(Nc3ccc(F)c(Cl)c3)ncnc2cc1O[C@H]1CCOC1 [BIBW 2992],464,573,594,561,-5.46,-5.43,-6.43,-5.76,-5.49,-5.55,-5.68,-6.56,-5.66,-5.58,-5.56,-6.25,-5.4,-5.76,667,673
O=C(/C=C/c1cccc(S(=O)(=O)Nc2ccccc2)c1)NO [Belinostat],329,419,446,469,-7.32,-7.04,-7.83,-7.21,-7.69,-7.2,-6.91,-7.83,-6.9,-7,-7.36,-7.71,-6.83,-7.16,452,450
O=c1c(N=Nc2ccc(S(=O)(=O)O)cc2)c(-c2ccc([N+](=O)[O-])cc2)[nH]n1-c1ccccc1 [PHPS1],618,611,622,646,> -5,> -5,> -5,> -5,> -5,> -5,> -5,> -5,> -5,> -5,> -5,> -5,> -5,> -5,671,764
Cc1ccc([N+](=O)[O-])cc1S(=O)(=O)N(C)/N=C/c1cnc2ccc(Br)cn12 [PIK-75],328,366,398,402,-7.25,-7.66,-7.78,-7.18,-7.35,-7.01,-7.16,-7.89,-7.36,-7.02,-7.33,-8.03,-7.08,-7.21,433,≥ 459
COc1ccc2c3n(c(=NC(=O)c4cccnc4)nc2c1OC)CCN3 [PIK-90],515,522,532,540,> -5,> -5,-5.42,-5.88,> -5,> -5,-5.78,> -5,> -5,> -5,> -5,> -5,> -5,> -5,575,571

# — the supplement of paper PMC5752671
